Assays:
[1] = biological target: T1, human hemoglobin (HbA) (Homo sapiens, UniProt P69905); assay: Oxygen equilibrium studies of hemoglobin solutions (Hem-O-Scan oxygen dissociation curves); type: biochemical; settings: hemoglobin solution; for P50 D (aver.) / ΔP50 (P50 D - P50 C): Hb 2.7 mM; for P50 D (aver.): compound 10 mM (approx. 4:1), 50 mM HEPES pH 7.4, incubated at 4° C. for two hours; for ΔP50 (P50 D - P50 C): compound 10 mM, 50 mM HEPES pH 7.4, positive = right shift
T1 construct: hemoglobin solution
Excerpt: In blood, hemoglobin is in equilibrium between two allosteric structures. In the "T" (for tense) state, hemoglobin is de-oxygenated. In the "R" (for relaxed) state, hemoglobin is oxygenated. An oxygen equilibrium curve can be scanned using well known equipment such as the Aminco™ Hem-o-scan to evaluate the affinity and degree of cooperativity (allosteric action) of hemoglobin. In the scan, the Y-axis plots the percent of hemoglobin oxygenation and the X-axis plots the partial pressure of oxygen in millimeters of mercury (mm Hg). If a horizontal line is drawn from the 50% oxygen saturation point to the scanned curve and a vertical line is drawn from the intersection point of the horizontal line with the curve to the partial pressure X-axis, a value commonly known as the P50 is determined. This is the pressure when the hemoglobin is 50% saturated with oxygen. By comparing the P50 value for treated hemoglobin to the P50 value for untreated normal adult human hemoglobin (HbA) under physiological conditions (i.e., 37° C., pH=7.4, and partial carbon dioxide pressure of 40 mm Hg), the degree of allosteric modification can be determined. When the P50 value for treated hemoglobin is lower than for HbA, a high oxygen affinity hemoglobin is indicated and the curve is said to be "left-shifted". Conversely, when the P50 value for treated hemoglobin is higher than for HbA, a low oxygen affinity hemoglobin is indicated and the curve is said to be "right-shifted".
In the oxygen equilibrium studies, the HbA was further purified by dialysis against pH 8.6. Tris buffer (50 mM, containing 40 mg EDTA/L) to remove any residual A2 hemoglobin. The pure HbA fraction was concentrated by using a Schleicher and Schuell colloidion bag apparatus, available from Schleicher and Schuell, Inc., with HEPES buffer (50 mM, pH 7.4) as the exchange buffer. The Hb concentration was determined by using the cyanmet method. The Hb concentration at this point was usually found to be around 35 g% (approximately 5.4 mM). Less than 5% methemoglobin was noted even after several days at 4° C. Oxygen dissociation curves were recorded on an AMINCO Hem-0-Scan oxygen dissociation analyzer available from Travenol Laboratories.
All compounds were dissolved in 50 mM HEPES buffer, pH 7.4, to give 20 mM of drug solution. The Hb (5.4 mM, in HEPES, pH 7.4) and the test compounds (20 mM) were mixed in 1:1 volume ratio (50μL of Hb+50μL of compound solution) to give final concentrations of 2.7 mM and 10mM, respectively (a molar ratio of test compound to hemoglobin of approximately 4:1). A control experiment was prepared by the addition of 50 μL of Hb to 50 μL of HEPES buffer. The mixtures were incubated at 4° C. for two hours before running the oxygen dissociation curves.

[2] = biological target: T2, HbA (Homo sapiens, UniProt P69905); assay: X-ray diffraction analysis of HbA/drug complexes (difference electron-density maps); type: binding; settings: HbA tetramer/drug molar ratio 1:5 (TB17 1:10), Schiff base reduced, deoxygenated crystals
T2 construct: co-crystals with compounds
Description: Reaction of the drug compounds with HbA, crystallization and X-ray data collection of the HbA/drug complexes were performed according to the procedures of Wireko et al., Proc. Natl. Acad. Sci. USA, 1991, 88, 2209, which is herein incorporated by reference, with some slight modifications. Freshly prepared solutions of the synthesized compounds in potassium phosphate buffer were incubated at oxy HbA tetramer/drug molar ratios of 1:5 or 1:10 for at least 24 hours. Sodium cyanoborohydrie in phosphate buffer was added in 10- to 50-fold molar excess of HbA tetramer to reduce the Schiff's base adduct for at least 24 hours. The deoxygenated HbA/compound complexes were set up for crystallizations following the procedures described in Perutz et al., Crys. Growth, 1968, 2, 54, which is herein incorporated by reference, with some slight modifications. X-ray quality crystals for all complexes were obtained after three to seven days. Crystals of TB19 (discussed below) grown with HbA incubated and reduced under deoxygenated conditions was also used for data collection.
X-ray diffraction data for the MS2 complex (discussed below) was collected using a Rigaku AFC5R rotating anode diffractometer to a resolution of 4Å. All hk±1 reflections and their Friedel pairs were collected. One crystal, dimensions 0.3 to 1.2 mm was used for collection. Diffraction data for the rest of the complexes were collected with a Rigaku AFC5R rotating anode diffractometer equipped with an R-axis IIC image plate system, all to a resolution of 1.94A. Crystals of linear dimensions 0.2 to 0.5 mm were used. Data reduction, structure solution and calculation of Fourier difference electron-density maps were as described in Wireko et al., Proc. Natl. Acad. Sci. USA, 1991, 88, 2209.
Models of the compounds created with MMOD and minimized with MM2 force field were fitted to the electron-density by using FRODO on an EVANS and SUTHERLAND PS390 graphic station.
X-ray diffraction analyses were used to study several of the new drug complexes including MS1, MS2, TB8, TB10, TB17, TB19, TB32, TB36, TB62, and TB63. The difference electron-density maps of all complexes discussed are that of the HbA tetramer/drug molar ratio of 1:5, except TB17 which is 1:10. All drug molecules contain at least two functionalities, an aldehyde and a carboxylate, common to all of them. […] The only exception was MS2 where only one of the carboxylate oxygens was involved in the salt bridge interaction. The above binding site, which is common to all of the complexes, will be referred to as the α-cleft binding site. Some of the above drug compounds have additional functional groups which are also involved in additional interaction with other HbA residues, including hydrogen bonding, van der Waals interaction, and a second covalent bonding.
All complexes have two molecules of the drug compounds bound at the above-mentioned α-cleft site and are related by the two fold noncrystallographic axis. These sites are further noted as the α1-cleft site (Val-1α1 binding site), and the α2-cleft site (Val-1α2 binding site). In all complexes, the electron density at the α2-cleft site were slightly bigger and better defined than the electron density at the α1-cleft site. In addition to the binding at the α-cleft site, some of the drug compounds also bind to other secondary sites, including other sites in the α-cleft water cavity, the β-cleft water cavity located at Val-1β, and the Hb polymer contact site located near the residues His-116β and His-117β.

[3] = system: whole blood; assay: Whole-blood studies: effect on the oxygen affinity of whole blood; type: cell-based; settings: for P50 D (aver.): heparinized whole blood mixed 1:1 with test compound solution, equilibrated 1 hour at 37° C., P50 C 25.0; for direction of shift of the oxygen equilibrium curve / ΔP50 D: whole blood; for ΔP50 D: 1 hour at 37° C., P50 D - P50 C

Compound | P50 D (aver.) [1] [mm Hg] | ΔP50 (P50 D - P50 C) [1] [mm Hg] | direction of shift of the oxygen equilibrium curve [1] | binding sites in HbA seen in the difference electron-density map [2] | P50 D (aver.) [3] [mm Hg] | direction of shift of the oxygen equilibrium curve [3] | ΔP50 D [3] [mm Hg]
2-phenylethyloxy-5-formylbenzoic acid [TB32] | 18.0 | -2.0 |  |  |  |  | 
O=Cc1ccc(O)c(C(=O)O)c1 [MS1, 5-formylsalicyclic acid] | 21.0 | 1.0 |  | four binding sites for MS1 in the central water cavity of HbA |  |  | 
O=Cc1ccc(C(=O)O)cc1 [MS2, 4-carboxybenzaldehyde] | 21.0 | 2.0 |  | binding exclusively at the two symmetry-related α-cleft sites |  |  | 
O=Cc1ccc(OCc2ccccc2COc2ccc(C=O)cc2C(=O)O)c(C(=O)O)c1 [TB5, α, α'-bis(2-carboxy-4-formylphenoxy)-o-xylene] | 31.0 | 9.5 |  |  |  |  | 
CC(=O)Oc1ccc(C=O)cc1C(=O)O [TB8, 5-formylaspirin] | 21.0 | -1.0 |  | binding of TB8 at the two symmetry-related α-cleft sites of Val-1α |  |  | 
O=Cc1ccc(OCc2cccc(COc3ccc(C=O)cc3C(=O)O)c2)c(C(=O)O)c1 [TB10, α,α'bis(2-carboxy-4-formylphenoxy)-m-xylene] | 26.0 | 4.5 |  |  |  |  | 
O=Cc1ccc(OCc2ccc(COc3ccc(C=O)cc3C(=O)O)cc2)c(C(=O)O)c1 [TB11, α,α'bis(2-carboxy-4-formylphenoxy)-p-xylene] | 24.0 | 2.5 |  |  |  |  | 
O=Cc1ccc(OCc2ccccc2)c(C(=O)O)c1 [TB17, 2-benzyloxy-5-formylbenzoic acid] |  |  | right shift | three molecules of TB17 reacted to the Hb tetramer | 14.5 | left shift | -9.5
O=Cc1ccc(OCC=CCOc2ccc(C=O)cc2C(=O)O)c(C(=O)O)c1 [TB18, 1,4-bis(2-carboxy-4-formylphenoxy)-2-butene] | 40.0 | 18.0 | right shift |  | 19.0 | left shift | -6.0
O=Cc1ccc(OCc2ccc(C(=O)O)cc2)c(C(=O)O)c1 [TB34, α-(2-carboxy-4-formylphenoxy)-p-toluic acid] | 14.0 | -6.0 |  |  |  |  | 
O=Cc1ccc(OCCCCOc2ccc(C(=O)O)cc2)c(C(=O)O)c1 [TB35] | 25 | 4 |  |  |  |  | 

Second part, led by results:

P50 D (aver.) [1] [mm Hg] | ΔP50 (P50 D - P50 C) [1] [mm Hg] | direction of shift of the oxygen equilibrium curve [1] | Compound | binding sites in HbA seen in the difference electron-density map [2] | P50 D (aver.) [3] [mm Hg] | direction of shift of the oxygen equilibrium curve [3] | ΔP50 D [3] [mm Hg]
44.0 | 22.0 |  | O=Cc1ccc(OCCCOc2ccc(C=O)cc2C(=O)O)c(C(=O)O)c1 [TB36, 1,3-bis(2-carboxy-4-formylphenoxy)-propane] | binding exclusively at the two symmetry-related α-cleft sites |  |  | 
14.0 | -6.0 |  | O=Cc1ccc(OC(=O)/C=C/C(=O)Oc2ccc(C=O)cc2C(=O)O)c(C(=O)O)c1 [TB40, bis(2-carboxy-4-formylphenyl)-fumerate] |  |  |  | 
39.0 | 17.0 |  | O=Cc1ccc(OCCCCCCOc2ccc(C=O)cc2C(=O)O)c(C(=O)O)c1 [TB42, 1,6-bis(2-carboxy-4-formylphenoxy)-hexane] |  |  |  | 
16.0 | -4.0 |  | O=Cc1ccc(OC(=O)c2ccc(C(=O)Oc3ccc(C=O)cc3C(=O)O)cc2)c(C(=O)O)c1 [TB56, bis(2-carboxy-4-formylphenyl)-terephthalate] |  |  |  | 
33.0 | 11.0 |  | O=Cc1ccc(OCCCCCOc2ccc(C=O)cc2C(=O)O)c(C(=O)O)c1 [TB57, 1,5-bis(2-carboxy-4-formylphenoxy)-pentane] |  |  |  | 
37.0 | 15.0 |  | O=Cc1ccc(OCCCCCCCCOc2ccc(C=O)cc2C(=O)O)c(C(=O)O)c1 [TB58, 1,8-bis(2-carboxy-4-formylphenoxy)-octane] |  |  |  | 
51.0 | 29.0 |  | O=Cc1ccc(OCOc2ccc(C=O)cc2C(=O)O)c(C(=O)O)c1 [TB62/45, bis(2-carboxy-4-formylphenoxy)-methane] | binding exclusively at the two symmetry-related α-cleft sites |  |  | 
46.0 | 24.0 |  | O=Cc1ccc(OCCOc2ccc(C=O)cc2C(=O)O)c(C(=O)O)c1 [TB63/41, 1,2-Bis(2-Carboxy-4-formylphenoxy)-ethane] | binding exclusively at the two symmetry-related α-cleft sites |  |  | 
30.0 | 8.0 |  | CC(CCCOc1ccc(C=O)cc1C(=O)O)Oc1ccc(C=O)cc1C(=O)O (centres unmarked) [TB72, 1,4-bis(2-carboxy-4-formylphenoxy)-pentane] |  |  |  | 
33.0 | 11.0 |  | O=Cc1ccc(OCCCCCCCCCCOc2ccc(C=O)cc2C(=O)O)c(C(=O)O)c1 [TB73, 1,10-bis(2-carboxy-4-formylphenoxy)-decane] |  |  |  | 
19.5 | -1.5 |  | O=Cc1ccc(OC(=O)C(=O)Oc2ccc(C=O)cc2C(=O)O)c(C(=O)O)c1 [TB77, bis(2-carboxy-4-formylphenyl)-oxalate] |  |  |  | 
14.5 | -5.5 |  | O=Cc1ccc(OC(=O)CCC(=O)Oc2ccc(C=O)cc2C(=O)O)c(C(=O)O)c1 [TB80, bis(2-carboxy-4-formylphenyl)-succinate] |  |  |  | 
